Results from ChEMBL document CHEMBL1150976, “The selectivity of protein kinase inhibitors: a further update” (Biochem J, 2007).

Columns and labels:
[1] = molecular target: T1, Serine/threonine-protein kinase 3 (Homo sapiens) (UniProt Q13188); experiment: Percentage MST2 activity remaining in the presence of 25uM inhibitor
T1 sequence (whole entry): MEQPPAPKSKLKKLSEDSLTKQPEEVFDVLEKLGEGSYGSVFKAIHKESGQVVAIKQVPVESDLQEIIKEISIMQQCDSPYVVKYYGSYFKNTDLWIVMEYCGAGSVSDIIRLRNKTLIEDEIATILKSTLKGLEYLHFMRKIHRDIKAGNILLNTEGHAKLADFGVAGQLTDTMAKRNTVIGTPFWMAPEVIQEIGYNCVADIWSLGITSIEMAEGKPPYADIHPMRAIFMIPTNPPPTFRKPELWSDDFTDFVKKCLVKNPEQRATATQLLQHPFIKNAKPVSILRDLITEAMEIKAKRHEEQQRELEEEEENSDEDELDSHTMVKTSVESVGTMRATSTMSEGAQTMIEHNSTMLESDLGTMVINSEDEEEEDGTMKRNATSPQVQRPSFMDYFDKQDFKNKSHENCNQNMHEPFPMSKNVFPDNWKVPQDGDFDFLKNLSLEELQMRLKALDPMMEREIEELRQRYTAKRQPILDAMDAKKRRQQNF

[2] = molecular target: T2, Mitogen-activated protein kinase 12 (Homo sapiens) (UniProt P53778); experiment: Percentage p38-gamma activity remaining in the presence of 25uM inhibitor
T2 sequence (whole entry): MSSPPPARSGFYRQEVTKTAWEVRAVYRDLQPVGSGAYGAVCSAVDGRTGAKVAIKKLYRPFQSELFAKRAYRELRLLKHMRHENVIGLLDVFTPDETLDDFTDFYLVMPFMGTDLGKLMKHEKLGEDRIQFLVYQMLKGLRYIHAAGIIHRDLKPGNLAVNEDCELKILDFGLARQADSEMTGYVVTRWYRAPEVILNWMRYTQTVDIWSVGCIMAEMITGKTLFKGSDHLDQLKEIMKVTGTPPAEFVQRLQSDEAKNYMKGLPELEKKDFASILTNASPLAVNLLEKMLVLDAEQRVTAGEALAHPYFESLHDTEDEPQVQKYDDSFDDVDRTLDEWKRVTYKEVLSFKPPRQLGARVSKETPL

[3] = molecular target: Ribosomal protein S6 kinase alpha-1 (Homo sapiens) (UniProt Q15418); experiment: Percentage RSK1 activity remaining in the presence of 25uM inhibitor
Chain of Ribosomal protein S6 kinase alpha-1 (Homo sapiens) (Q15418 whole entry): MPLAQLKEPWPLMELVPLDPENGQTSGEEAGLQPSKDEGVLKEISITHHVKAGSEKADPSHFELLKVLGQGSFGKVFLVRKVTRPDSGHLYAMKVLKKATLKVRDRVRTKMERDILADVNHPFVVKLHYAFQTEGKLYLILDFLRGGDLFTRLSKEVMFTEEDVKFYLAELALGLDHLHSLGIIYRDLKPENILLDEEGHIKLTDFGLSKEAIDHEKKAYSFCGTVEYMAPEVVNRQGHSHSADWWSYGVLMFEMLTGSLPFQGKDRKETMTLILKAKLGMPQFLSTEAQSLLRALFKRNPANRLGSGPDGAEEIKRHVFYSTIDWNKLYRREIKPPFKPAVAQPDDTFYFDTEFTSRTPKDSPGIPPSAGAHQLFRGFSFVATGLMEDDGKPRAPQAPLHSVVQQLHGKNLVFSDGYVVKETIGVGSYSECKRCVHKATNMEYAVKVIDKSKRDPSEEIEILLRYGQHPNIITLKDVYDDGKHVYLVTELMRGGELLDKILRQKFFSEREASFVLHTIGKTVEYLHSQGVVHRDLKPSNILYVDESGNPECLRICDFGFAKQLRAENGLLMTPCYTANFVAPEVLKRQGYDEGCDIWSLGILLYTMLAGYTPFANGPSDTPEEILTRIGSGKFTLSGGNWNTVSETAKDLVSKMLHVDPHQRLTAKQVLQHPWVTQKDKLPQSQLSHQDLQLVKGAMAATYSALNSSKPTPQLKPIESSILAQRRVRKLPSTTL

[4] = molecular target: T3, Serine/threonine-protein kinase Chk1 (Homo sapiens) (UniProt O14757); experiment: Percentage CHK1 activity remaining in the presence of 25uM inhibitor
T3 sequence (whole entry): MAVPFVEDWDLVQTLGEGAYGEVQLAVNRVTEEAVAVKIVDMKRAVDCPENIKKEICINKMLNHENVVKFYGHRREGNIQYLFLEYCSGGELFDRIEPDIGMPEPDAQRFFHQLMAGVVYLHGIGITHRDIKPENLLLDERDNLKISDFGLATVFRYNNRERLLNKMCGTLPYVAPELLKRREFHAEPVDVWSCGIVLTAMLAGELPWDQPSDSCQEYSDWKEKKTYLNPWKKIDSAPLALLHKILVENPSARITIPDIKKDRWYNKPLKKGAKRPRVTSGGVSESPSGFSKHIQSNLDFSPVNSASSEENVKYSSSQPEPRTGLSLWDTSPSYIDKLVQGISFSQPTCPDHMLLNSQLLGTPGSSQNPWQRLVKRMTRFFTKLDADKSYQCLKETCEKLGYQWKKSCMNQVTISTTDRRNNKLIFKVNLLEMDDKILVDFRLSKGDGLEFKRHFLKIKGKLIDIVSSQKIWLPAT

[5] = molecular target: Tyrosine-protein kinase CSK (Homo sapiens, UniProt P41240); experiment: Percentage CSK activity remaining in the presence of 25uM inhibitor
Chain of Tyrosine-protein kinase CSK (P41240 2-450 limits assumed): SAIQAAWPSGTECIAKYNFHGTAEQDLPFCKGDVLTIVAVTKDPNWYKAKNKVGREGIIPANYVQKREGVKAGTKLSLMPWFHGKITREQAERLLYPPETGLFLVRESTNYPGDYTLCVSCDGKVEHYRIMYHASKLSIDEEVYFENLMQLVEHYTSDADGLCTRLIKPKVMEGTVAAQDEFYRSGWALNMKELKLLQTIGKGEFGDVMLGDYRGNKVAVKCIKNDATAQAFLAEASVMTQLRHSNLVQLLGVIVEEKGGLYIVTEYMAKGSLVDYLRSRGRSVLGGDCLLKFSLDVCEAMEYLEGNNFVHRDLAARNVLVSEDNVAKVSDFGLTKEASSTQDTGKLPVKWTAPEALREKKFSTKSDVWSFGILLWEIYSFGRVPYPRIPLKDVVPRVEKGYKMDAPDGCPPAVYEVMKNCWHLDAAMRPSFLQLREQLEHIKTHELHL

Rattus norvegicus = organism: Rattus norvegicus; experiment: Percentage AMPK activity remaining in the presence of 25uM inhibitor
[6] = molecular target: Casein kinase I isoform delta (Homo sapiens, UniProt P48730); experiment: Percentage CK1delta activity remaining in the presence of 25uM inhibitor; conditions: filed as antagonist
Chain of Casein kinase I isoform delta (P48730 whole entry, looked up, canonical isoform): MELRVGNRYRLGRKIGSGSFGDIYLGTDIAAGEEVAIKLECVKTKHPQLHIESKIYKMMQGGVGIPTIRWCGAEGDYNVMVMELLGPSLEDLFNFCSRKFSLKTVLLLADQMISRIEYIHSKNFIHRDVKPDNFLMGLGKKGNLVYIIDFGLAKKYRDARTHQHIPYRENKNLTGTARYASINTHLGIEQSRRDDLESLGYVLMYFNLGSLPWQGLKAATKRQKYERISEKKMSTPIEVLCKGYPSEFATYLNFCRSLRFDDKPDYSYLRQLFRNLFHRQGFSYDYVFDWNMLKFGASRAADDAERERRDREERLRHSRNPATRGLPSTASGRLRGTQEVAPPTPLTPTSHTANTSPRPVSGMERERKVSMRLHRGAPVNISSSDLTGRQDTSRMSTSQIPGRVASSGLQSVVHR

[7] = molecular target: Calcium/calmodulin-dependent protein kinase kinase 2 (Homo sapiens) (UniProt Q96RR4); experiment: Percentage CaMKKbeta activity remaining in the presence of 25uM inhibitor
Chain of Calcium/calmodulin-dependent protein kinase kinase 2 (Homo sapiens) (Q96RR4 2-588 limits assumed): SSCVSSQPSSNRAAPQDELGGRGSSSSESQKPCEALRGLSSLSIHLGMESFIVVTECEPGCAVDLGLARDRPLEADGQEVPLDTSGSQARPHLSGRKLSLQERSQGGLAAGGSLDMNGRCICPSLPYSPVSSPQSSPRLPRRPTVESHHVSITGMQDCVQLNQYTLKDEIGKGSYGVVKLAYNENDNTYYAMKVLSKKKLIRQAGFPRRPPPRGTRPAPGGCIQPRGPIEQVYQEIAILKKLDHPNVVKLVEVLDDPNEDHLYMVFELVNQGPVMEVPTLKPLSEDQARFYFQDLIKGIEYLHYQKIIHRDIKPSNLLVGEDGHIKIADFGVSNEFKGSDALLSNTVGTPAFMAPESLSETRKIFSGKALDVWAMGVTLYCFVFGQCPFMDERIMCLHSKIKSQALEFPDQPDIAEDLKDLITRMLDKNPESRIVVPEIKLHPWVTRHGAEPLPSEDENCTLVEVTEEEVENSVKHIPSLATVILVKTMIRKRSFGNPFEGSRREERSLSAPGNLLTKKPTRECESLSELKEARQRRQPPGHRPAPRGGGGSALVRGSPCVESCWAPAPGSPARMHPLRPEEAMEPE

[8] = molecular target: Serine/threonine-protein kinase PAK 5 (Homo sapiens) (UniProt Q9P286); experiment: Percentage PAK5 activity remaining in the presence of 25uM inhibitor
Chain of Serine/threonine-protein kinase PAK 5 (Homo sapiens) (Q9P286 whole entry, looked up): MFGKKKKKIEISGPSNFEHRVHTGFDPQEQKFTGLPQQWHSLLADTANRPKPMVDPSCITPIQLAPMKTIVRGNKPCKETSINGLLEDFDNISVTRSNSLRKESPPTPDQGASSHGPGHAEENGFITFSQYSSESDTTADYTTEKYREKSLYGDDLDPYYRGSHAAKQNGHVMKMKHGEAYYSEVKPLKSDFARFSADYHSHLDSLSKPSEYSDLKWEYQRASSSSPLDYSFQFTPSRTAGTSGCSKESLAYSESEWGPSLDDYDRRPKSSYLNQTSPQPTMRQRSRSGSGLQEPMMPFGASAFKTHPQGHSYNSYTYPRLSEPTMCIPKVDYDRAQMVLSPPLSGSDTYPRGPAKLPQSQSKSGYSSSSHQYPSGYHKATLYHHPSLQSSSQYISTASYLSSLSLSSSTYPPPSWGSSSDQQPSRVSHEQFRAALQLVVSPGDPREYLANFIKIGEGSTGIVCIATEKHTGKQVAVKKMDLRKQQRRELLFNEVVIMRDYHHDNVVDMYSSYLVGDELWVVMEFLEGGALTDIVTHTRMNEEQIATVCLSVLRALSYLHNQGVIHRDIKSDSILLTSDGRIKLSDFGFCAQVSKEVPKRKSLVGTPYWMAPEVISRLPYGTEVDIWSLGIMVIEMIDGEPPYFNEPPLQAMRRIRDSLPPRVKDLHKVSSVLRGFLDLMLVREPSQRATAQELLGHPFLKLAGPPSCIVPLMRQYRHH

[9] = molecular target: cAMP-dependent protein kinase catalytic subunit alpha (Homo sapiens, UniProt P17612); experiment: Percentage PKA activity remaining in the presence of […]uM inhibitor; conditions: at 25 µM
[10] = molecular target: T4, Serine/threonine-protein kinase Nek2 (Homo sapiens) (UniProt P51955); experiment: Percentage NEK2a activity remaining in the presence of 0.01uM inhibitor
T4 sequence (whole entry): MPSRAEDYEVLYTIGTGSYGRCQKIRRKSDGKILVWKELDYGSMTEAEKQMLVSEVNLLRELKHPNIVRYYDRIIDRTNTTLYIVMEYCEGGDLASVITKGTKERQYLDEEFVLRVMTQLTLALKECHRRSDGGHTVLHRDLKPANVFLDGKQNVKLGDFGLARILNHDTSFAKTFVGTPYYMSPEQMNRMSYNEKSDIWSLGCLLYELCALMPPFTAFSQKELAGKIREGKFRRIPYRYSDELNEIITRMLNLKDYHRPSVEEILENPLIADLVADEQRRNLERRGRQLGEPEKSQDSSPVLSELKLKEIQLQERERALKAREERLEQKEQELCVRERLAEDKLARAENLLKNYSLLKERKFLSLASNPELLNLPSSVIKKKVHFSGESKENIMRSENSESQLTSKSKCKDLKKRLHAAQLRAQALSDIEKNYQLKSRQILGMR

[11] = molecular target: Myosin light chain kinase, smooth muscle (Homo sapiens, UniProt Q15746); experiment: Percentage SmMLCK activity remaining in the presence of 0.01uM inhibitor
Chain of Myosin light chain kinase, smooth muscle (Q15746 whole entry): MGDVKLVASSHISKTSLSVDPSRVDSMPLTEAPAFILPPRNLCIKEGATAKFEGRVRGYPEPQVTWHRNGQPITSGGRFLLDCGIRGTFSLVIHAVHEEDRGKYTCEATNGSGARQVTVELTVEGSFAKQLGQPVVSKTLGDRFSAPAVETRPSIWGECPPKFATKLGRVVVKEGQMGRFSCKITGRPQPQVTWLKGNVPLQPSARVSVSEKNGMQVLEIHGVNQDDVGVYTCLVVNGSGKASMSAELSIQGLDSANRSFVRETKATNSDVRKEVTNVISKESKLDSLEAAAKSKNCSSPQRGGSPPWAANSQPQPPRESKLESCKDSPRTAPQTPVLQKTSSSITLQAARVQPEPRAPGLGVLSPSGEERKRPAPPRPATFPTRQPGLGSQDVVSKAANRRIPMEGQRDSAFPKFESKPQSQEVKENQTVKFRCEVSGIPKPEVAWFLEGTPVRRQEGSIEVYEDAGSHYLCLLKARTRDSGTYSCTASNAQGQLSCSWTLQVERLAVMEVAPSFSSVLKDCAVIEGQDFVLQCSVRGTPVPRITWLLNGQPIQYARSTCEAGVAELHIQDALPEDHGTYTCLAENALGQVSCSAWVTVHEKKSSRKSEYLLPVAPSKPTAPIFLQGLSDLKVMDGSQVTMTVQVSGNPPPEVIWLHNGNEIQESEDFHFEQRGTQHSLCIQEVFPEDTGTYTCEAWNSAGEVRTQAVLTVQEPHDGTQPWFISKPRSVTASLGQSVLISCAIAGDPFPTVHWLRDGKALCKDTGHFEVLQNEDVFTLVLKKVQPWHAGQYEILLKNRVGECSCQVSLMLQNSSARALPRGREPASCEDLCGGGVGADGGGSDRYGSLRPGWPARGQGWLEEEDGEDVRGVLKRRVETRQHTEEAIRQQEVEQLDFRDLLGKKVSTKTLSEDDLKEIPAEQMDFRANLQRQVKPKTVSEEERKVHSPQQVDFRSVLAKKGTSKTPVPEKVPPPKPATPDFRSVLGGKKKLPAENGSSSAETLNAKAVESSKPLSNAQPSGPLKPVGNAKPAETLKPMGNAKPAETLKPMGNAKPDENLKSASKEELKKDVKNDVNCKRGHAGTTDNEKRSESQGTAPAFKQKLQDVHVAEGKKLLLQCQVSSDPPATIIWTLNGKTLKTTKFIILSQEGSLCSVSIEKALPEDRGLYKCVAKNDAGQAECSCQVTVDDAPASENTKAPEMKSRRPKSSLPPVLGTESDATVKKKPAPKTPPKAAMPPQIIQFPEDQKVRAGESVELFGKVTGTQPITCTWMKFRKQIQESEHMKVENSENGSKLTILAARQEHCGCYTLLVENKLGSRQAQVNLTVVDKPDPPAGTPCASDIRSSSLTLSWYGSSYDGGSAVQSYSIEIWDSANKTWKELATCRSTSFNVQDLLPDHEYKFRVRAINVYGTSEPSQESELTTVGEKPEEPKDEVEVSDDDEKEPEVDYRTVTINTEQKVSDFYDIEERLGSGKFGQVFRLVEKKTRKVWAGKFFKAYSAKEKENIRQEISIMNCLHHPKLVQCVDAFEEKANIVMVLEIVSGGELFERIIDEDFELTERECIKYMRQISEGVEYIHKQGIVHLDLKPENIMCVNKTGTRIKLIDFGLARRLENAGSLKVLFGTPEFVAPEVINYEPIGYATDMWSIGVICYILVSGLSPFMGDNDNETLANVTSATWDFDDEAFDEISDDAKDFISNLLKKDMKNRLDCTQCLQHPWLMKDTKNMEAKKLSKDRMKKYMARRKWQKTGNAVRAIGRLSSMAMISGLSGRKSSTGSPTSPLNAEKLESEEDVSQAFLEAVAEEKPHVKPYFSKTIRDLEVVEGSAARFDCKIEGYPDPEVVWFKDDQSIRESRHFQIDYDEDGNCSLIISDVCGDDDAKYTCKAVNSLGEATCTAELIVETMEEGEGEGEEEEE

Structure (SMILES) | Activity [1] | Activity [2] | Activity ([3]; filed as antagonist) | Activity [4] | Activity [5] | Activity (Rattus norvegicus; filed as antagonist) | Activity [6] | Activity [7] | Activity [8] | Activity [9] | Activity [3] | Activity (Rattus norvegicus) | Activity [10] | Activity [11]
NCCNS(=O)(=O)c1ccc(Cl)c2ccncc12 | 91% | 102% | 48% | 86% | 79% | 29% | 12% | 86% | 86% | 65% |  |  |  | 
COc1cc(OC)c(/C=C2/C(=O)Nc3ccccc32)c(OC)c1 | 70% | 93% |  | 99% | 81% |  | 9% | 86% | 84% | 82% | 87% | 71% |  | 
O=C(NCCCNc1nc(Nc2cccc(NC(=O)N3CCCC3)c2)ncc1I)c1cccs1 |  |  |  |  |  |  |  |  |  |  |  |  | 92% | 110%
CN[C@@H]1C[C@H]2O[C@@](C)([C@@H]1OC)n1c3ccccc3c3c4c(c5c6ccccc6n2c5c31)C(=O)N[C@H]4O (stereo in doubt) |  |  |  |  |  |  |  |  |  |  |  |  | 85% | 83%
